Ends that are not written are not given here.
What was measured:
[1] = test system: Bax−/−Bak−/− mouse embryo fibroblasts reconstituted with BAXK21E; assay: apoptosis of BAXK21E-reconstituted DKO MEFs (annexin-V binding); format: cell-based; settings: compared with wild-type BAX
Source text: (§1) To determine if this single point mutation within the novel BAX binding site impacted the capacity to activate BAX in a cellular context, we retrovirally reconstituted Bax^−/−Bak^−/− mouse embryo fibroblasts (DKO MEFs) with either wild type or BAXK21E and monitored apoptosis induction in response to BIM SAHB. […] This decrease in BAXK21E-mediated apoptosis correlates with impaired activation of […] by BIM SAHB in both oligomerization and cytochrome c release assays (FIG. 15a, 15b).
To probe the broader physiologic impact of the novel BAX activation site, we examined the apoptotic response of DKO MEFs reconstituted with BAX and BAXK21E to staurosporine (STS), a general stimulus known to operate through endogenous BH3-only proteins, including BIM. K21E mutagenesis impaired STS-induced apoptosis, as monitored by annexin V binding over time (FIG. 15d). The reduced activity of BAXK21E was also reflected by impaired cytochrome c release, as detected by subcellular fractionation Western analysis and indirect immunofluorescence. The blunted response of BAXK21E-reconstituted DKO MEFs to STS is uniformly consistent with impaired activation of BAXK21E by BIM SAHB in oligomerization (FIG. 15a), cytochrome c release (FIG. 15b), and cell-based apoptosis assays (FIG. 15c). […]

monomeric BAX = monomeric BAX (Homo sapiens, UniProt Q07812); assay: BAX oligomerization assay (size exclusion chromatography); format: biochemical; settings: wild-type BAX, room temperature
Source text: In contrast to the stable inhibitory interactions of BIM BH3 with anti-apoptotic proteins, the BAX-activating interaction triggers a dynamic continuum of events that includes BAX conformational change and oligomerization. […] In monomeric BAX, the center of the loop weakly associates with residues Ile133 and Met 137 of the α6 helix (Suzuki & Tjandra, Cell 103 (4), 645-654 (2000)). Changes observed in the loop residues can readily be explained by the shift of the loop conformation into an open form upon BIM SAHB binding. Because loop displacement upon ligand engagement may initiate a conformational change of BAX, we investigated whether BIM SAHB binding could directly activate BAX in solution. We monitored both the conversion of BAX from monomer to oligomer by size-exclusion chromatography (SEC) and the exposure of its buried N-terminal residues using the 6A7 antibody, which selectively detects the conformational change associated with BAX activation (Hsu & Youle, The Journal of biological chemistry 272 (21), 13829-13834 (1997)). […] Thus, the transient stability of the BIM SAHB-BAX complex we observe by NMR correlates with the interaction-triggered BAX conformational change and oligomerization that we detect biochemically.
Oligomerization assay: BIM SAHB was added to a 200 μL solution (20 mM Hepes/KOH pH 7.2-7.4, 150 mM KCl) containing monomeric BAX (38 μM) at a ratio of 0.5:1, 1:1, 2:1 and 4:1 BIM SAHB:BAX. The mixtures and a sample of BAX monomer alone were incubated at 22° for 15 minutes and then subjected to analysis by size exclusion chromatography (SEC) using an SD75 column. […] Protein standards (GE Healthcare) were used to calibrate the molecular weights of gel filtration peaks. For time-dependent analysis, BIM SAHB was added to monomeric BAX at a ratio of 1:1, and the mixtures were analyzed by SEC after incubation for 30, 60, and 90 minutes at 22° C. As a baseline for comparison, Bax monomer alone was analyzed at time 0 and the above time points.

[2] = test system: BAX-mediated cytochrome c release, BAX/BAK doubly-deficient mouse liver mitochondria; assay: mitochondrial cytochrome c release assay; format: biochemical; settings: Alb-cre pos Bax flox/− Bak−/− mouse liver mitochondria plus BAX
Source text: (§2) To confirm that the SEC-based detection of BIM SAHB-induced BAX oligomerization reflects functional activation of BAX for its release activity, we performed correlative liposomal and mitochondrial assays. […] Thus, in four distinct in vitro assays that measure ligand-induced BAX activation, BIM SAHB directly and dose-responsively triggered BAX.
Mitochondrial Release Assay: In order to test activation/inhibition of a BCL-2 family polypeptide interactions on mitochondrial apoptosis induction, a cytochrome c release assay is used that employs mouse liver mitochondria from Bak^−/− mice or Alb-cre^posBax^flox/−Bak^−/− mice, added recombinant BCL-2 family polypeptide, e.g., BAX, BAK, or BOK (50 nM) with or without increasing doses of SAHBs (50-500 nM), and an ELISA-based read-out of cytochrome c. Negative controls include recombinant protein alone, compounds alone, vehicle treatment, point mutant SAHBs, and blockade using anti-apoptotic proteins, such as BCL-XL ΔC.

BAX = BAX (Homo sapiens, UniProt Q07812); assay: liposomal release assay (FITC-dextran); format: biochemical; settings: combination with BAX
Source text: as §2
Liposomal Release Assay: Another assay that can be used to determine modulation of the BCL-2 family polypeptide is a liposomal release assay that simulates the mitochondria but only includes the essential components for BAX/BAK/BOK-induced release. […] Lipid concentration is determined by measuring vesicular phosphate content (Böttcher, C. J. F. et al. (1961) Anal Chim Acta 24, 203-204). The fluorescence dequenching assay is adapted from previous reports (Kuwana, T. et al. (2002) Cell 111(3), 331-342) (Terrones, O., et al. (2004) J Biol Chem 279(29), 30081-30091). The release of FITC-labeled dextran-10 kD from LUVs is monitored using a FluoroMax-2 spectrofluorometer (SPEX), in a thermostated 1 cm path length quartz cuvette with constant stirring at 37° C. […]

[3] = test system: Bax−/−Bak−/− mouse embryo fibroblasts reconstituted with wild type BAX; assay: apoptosis of BAX-reconstituted DKO MEFs (annexin-V binding); format: cell-based
Source text: as §1

[4] = test system: MCL-1 overexpressing or otherwise chemoresistant cancer cells; assay: reactivating apoptosis of MCL-1 overexpressing or chemoresistant cancer cells; format: cell-based
Source text: Many cancer cells and their relapsed/chemoresistant variants achieve cellular immortality by massively overexpressing anti-apoptotic members of the BCL-2 family. Using BH3 mimetics and small molecules, anti-apoptotic inhibition is one mode of overcoming apoptotic blockade. However, when BH3 mimetics or small molecules have a specificity profile that cannot target a specific anti-apoptotic blockade, such as MCL-1 overexpression (Van Delft et al, Cancer Cell. 2006 Nov.; 10(5):389-99; Konopleva et al, Cancer Cell. 2006 Nov.; 10(5):375-88; Deng et al Cancer Cell. 2007 Aug.; 12(2):171-85), direct BAX modulation can circumvent, or synergize with, such apoptotic blockade for therapeutic benefit. […] Therefore, cancers or other diseased cells that either overexpress anti-apoptotic proteins such as MCL-1 and A1, or cancers or diseased cells that specifically down-regulate activator BH3-only proteins, like BIM, such as in Mantle Cell lymphoma (Tagawa et al Oncogene. 2005 Feb. 17; 24(8):1348-58; Mestre-Escorihuela, Blood. 2007 Jan. 1; 109(1):271-80) and cf. with mouse model of BIM-deletion, are ideally suited for BIM SAHB, or derivatives and mimetics thereof, to reactivate apoptosis through direct engagement of the novel BAX activation site and thereby induce apoptosis for therapeutic purposes and irrespective of the aforementioned apoptotic blockades.

[5] = molecular target: T1, BCL-2-related ovarian killer (BOK) (Homo sapiens, UniProt Q9UMX3); assay: binding of SAHB ligands to BOK
T1 sequence (Q9UMX3 1-212): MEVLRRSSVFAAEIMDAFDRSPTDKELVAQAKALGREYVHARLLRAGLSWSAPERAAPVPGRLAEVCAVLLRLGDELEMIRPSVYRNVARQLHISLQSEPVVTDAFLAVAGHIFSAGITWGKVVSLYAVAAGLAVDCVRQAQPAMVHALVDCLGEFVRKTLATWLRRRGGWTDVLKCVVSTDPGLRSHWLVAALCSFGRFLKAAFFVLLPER

[6] = test system: Pfeiffer lymphoma cell line which overexpresses MCL-1 and A1; assay: killing of Pfeiffer lymphoma cell line; format: cell-based

monomeric BAX, sequence (Q07812 whole entry): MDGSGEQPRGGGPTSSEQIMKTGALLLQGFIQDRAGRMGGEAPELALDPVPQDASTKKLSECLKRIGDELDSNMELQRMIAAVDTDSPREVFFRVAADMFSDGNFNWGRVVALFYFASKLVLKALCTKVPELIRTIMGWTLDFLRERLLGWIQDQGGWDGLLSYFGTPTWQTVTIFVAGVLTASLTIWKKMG
BAX, sequence (Q07812 whole entry): as above

| Molecule | apoptosis induction, annexin-V binding [1] | BAX oligomerization (monomer to oligomer, SEC) (monomeric BAX) | BAX-mediated cytochrome c release [2] | also measured |
| --- | --- | --- | --- | --- |
| CN[C@@H]1C[C@H]2O[C@@](C)([C@@H]1OC)n1c3ccccc3c3c4c(c5c6ccccc6n2c5c31)C(=O)NC4 [staurosporine, reference compound] | impaired | – | – | – |
| I155E: BIM SAHB with hydrophobic to charged point mutation I155E (FIG. 13a) (EIWIAQELRREGDEFNAYYARR; staple (positions not given here); also: hydrocarbon staple, positions not given here) | – | abrogated | abrogated | – |
| BIM SAHB R153D: BIM SAHB with reverse-polarity point mutation R153D at the BAX interaction surface (FIG. 13a) (EIWIAQELDRIGDEFNAYYARR; staple (positions not given here); also: hydrocarbon staple, positions not given here) | abolished | abrogated | abrogated | liposomal release of entrapped FITC-dextran (BAX): abrogation of activity; apoptosis induction, annexin-V binding [3]: abolished |
| BID SAHB: hydrocarbon-stapled BID BH3 polypeptide (FIG. 9, SEQ ID NO:4) (ESQEDIIRNIARHLAQVGDEMDRSI; staple (positions not given here); also: hydrocarbon staple, positions not given here; listed as Homo sapiens) | – | – | – | potency in reactivating apoptosis relative to ABT-737 or BAD SAHB [4]: more potent; binding to BOK [5]: bound |
| CN(C)CC[C@H](CSc1ccccc1)Nc1ccc(S(=O)(=O)NC(=O)c2ccc(N3CCN(Cc4ccccc4-c4ccc(Cl)cc4)CC3)cc2)cc1[N+](=O)[O-] [ABT-737, reference compound] | – | – | – | cell killing / sensitivity [6]: resistant |
| D157R: BIM SAHB with reverse-polarity point mutation D157R (FIG. 13a) (EIWIAQELRRIGREFNAYYARR; staple (positions not given here); also: hydrocarbon staple, positions not given here) | – | abrogated | abrogated | – |
